For series [1], the system named is SARS-CoV-2. In words: microbe, parasite or virus in culture. Format: cell-based. Conditions: for EC50: calculated using virus production at different drug concentrations.
Series [2] concerns SARS-CoV-2. In words: Membrane fusion (CPE, syncytium formation) and fusion index of infected VeroE6/TMPRSS2 cells. Format: cell-based. The settings on record: for Membrane fusion (CPE caused by viral infection): MOI 0.01, 24 h. The protocol: Figure 2 Pin1 inhibitor H-77 inhibits SARS-CoV-2 proliferation in a concentration-dependent manner. VeroE6/TMPRSS2 cells were pretreated with the indicated concentrations of H-77 for 2 h, and were subjected to SARS-CoV-2 infection (MOI of 0.01) followed by incubation for 24 h in the presence of the same concentrations of H-77. (A) Western blotting of cell lysates (Duplicate in the figure) with SARS-CoV-2 N, Pin1, and actin antibodies. Full-length blots are presented in Supplementary Fig. 4. (B) vRNA copies contained in 5 µL of the supernatant were quantified by RT-qPCR using authorized SARS-CoV-2 N primers (n = 3). (C) Fusion index calculated by counting numbers of cells and nuclei of infected cells after Giemsa straining. Approximately 100 nuclei and cell number per field were counted for each of five fields. Error bars indicate standard deviation. *P < 0.05, **P < 0.01, Mann–Whitney U test, compared with 0 µM (DMSO). (D) Representative images of SARS-CoV-2-infected VeroE6/TMPRSS2 cells at 24 h post-infection with the indicated concentrations of H-77.
The cells were then washed with PBS, fixed with methanol, and stained with Giemsa staining solution. The fusion index was calculated as [1-(number of cells/number of nuclei)] as described previously. Approximately 100 nuclei and cell number per field were counted, and the average fusion index of five fields was calculated.

In series [3] the test system is FKBP. On the set-up: method as in PMID 25849135. The settings on record: cited from earlier work.
Series [4] has as its system cyclophilin. On the set-up: method as in PMID 25849135. The settings on record: cited from earlier work.
Series [5] concerns Pin1. Also noted: method as in PMID 25849135. The settings on record: cited from earlier work.
Series [6] concerns SARS-CoV-2. The class given is cell-based. Conditions: for SARS-CoV-2 proliferation: MOI 0.01, harvested 24 h after infection.
Series [7] concerns the target recombinant Pin1 protein (Homo sapiens, UniProt Q13526). The series is described as follows: In vitro PPIase assay using recombinant Pin1 protein (method of Janowski et al., Eurofins Selcia). Format: biochemical. Conditions: for inhibition at 2 µM: concentration 2 µM; for inhibition at 20 µM: concentration 20 µM.
For series [8], the system named is VeroE6/TMPRSS2 cells.
[9] abbreviates: Severe acute respiratory syndrome coronavirus 2, VeroE6/TMPRSS2, read-out: EC50 (50% effective concentration, SARS-CoV-2 proliferation), VeroE6/TMPRSS2 cells.
Where [10] appears, read: 10 µM from 2 h before infection, 24 h after infection.
[11] abbreviates: Severe acute respiratory syndrome coronavirus 2, VeroE6/TMPRSS2 cells, read-out: EC50 (50% effective concentration, SARS-CoV-2 proliferation).

Like-named read-outs stand apart in the source and are kept apart here.

Sequence of recombinant Pin1 protein (Q13526 whole entry, species assumed): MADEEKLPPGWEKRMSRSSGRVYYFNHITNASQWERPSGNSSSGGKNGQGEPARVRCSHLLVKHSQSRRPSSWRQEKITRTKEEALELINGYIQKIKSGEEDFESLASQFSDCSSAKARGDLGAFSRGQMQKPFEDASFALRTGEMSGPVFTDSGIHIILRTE

For `CC1=C(/C=C/C(C)=C/C=C/C(C)=C/C(=O)O)C(C)(C)CCC1` [ATRA, all-trans retinoic acid, reference compound], the EC50 in series [1] (setting [9]) is 17.9 µM. Further, the “SARS-CoV-2 protein and viral RNA levels” value in series [1] (concentration-dependent, pretreated 2 h, MOI 0.01, 24 h) is “marked reductions”. For the same compound, the “CPE of SARS-CoV-2” value in series [2] (VeroE6/TMPRSS2 cells) is on record as “alleviated”. The “Activity of FKBP” value in series [3] is on record as “does not affect”. The Activity of cyclophilin entry in series [4] is on record as “does not affect”. In addition, the “Activity of Pin1” value in series [5] is given as “inhibits”.

For orientation: inhibition means the drop in the measured response relative to a control, in per cent. On to `O=C(Nc1ccc(OCc2ccccc2)cc1C(=O)O)c1ccc2ccccc2c1` [H-77], for which the EC50 in series [1] (setting [9]) was less than 5 µM; in series [1] (read-out: EC50 (50% effective concentration, SARS-CoV-2 proliferation), VeroE6/TMPRSS2 cells), 3.2 µM. The “Membrane fusion (CPE caused by viral infection)” value in series [2] (concentrations above 7.5 μM) was “almost absent”; in series [2] (drug concentration increased to 5 μM), “less apparent”. Moreover, the SARS-CoV-2 proliferation entry is “almost completely blocked” in series [6] (10 µM added 2 h after infection) and “weaker but still significant inhibitory effect” in series [6] (10 µM added 6 h after infection). In series [6] (setting [10]), the “Amount of genomic RNA released from the cells (vRNA in supernatant)” value is reported as “significantly reduced”. The “Intracellular viral N mRNA” value in series [6] (setting [10]) is reported as “significantly reduced”. Besides, the inhibition at 2 µM in series [7] came out at 67%. Further, in series [7], the inhibition at 20 µM was 82%.

For `O=C(O)[C@@H](Cc1ccc2ccccc2c1)OC(=O)n1c2ccccc2c2ccccc21` [H-175], the EC50 in series [1] (setting [11]) is 12 µM. The inhibition at 20 µM in series [7] came to 89%.

As to `O=C(Nc1ccc(OCc2ccccc2)cc1C(=O)O)c1cccc(Oc2ccccc2)c1` [H-363], the EC50 in series [1] (setting [11]) is 6.3 µM. Besides, the inhibition at 20 µM in series [7] was found to be 82%.

As for `O=C(Nc1ccc(OCc2ccc3ccccc3c2)cc1C(=O)O)c1ccc2ccccc2c1` [H-371], the EC50 in series [1] (setting [11]) is 4.2 µM. For the same compound, the inhibition at 2 µM in series [7] stood at 80%.

For the compound `O=C(O)c1cc(NC(=O)n2c3ccccc3c3ccccc32)cc(NC(=O)n2c3ccccc3c3ccccc32)c1` [H-596], the EC50 in series [1] (setting [11]) was 5.2 µM. Moreover, the inhibition at 1 µM in series [7] (concentration 1 µM) turned out to be 13%. For the same compound, the inhibition at 10 µM in series [7] (concentration 10 µM) came out at 101%.

For `O=C1C=CC(=O)c2c(O)cccc21` [Juglone], the Cell survival result in series [8] is recorded as “unable to survive”.

These data come from paper PMC8448864, “Prolyl isomerase Pin1 plays an essential role in SARS-CoV-2 proliferation, indicating its possibility as a novel therapeutic target” (Scientific Reports, 2021).
